Test results reported in ChEMBL document CHEMBL1139528, “Molecular determinants of topoisomerase I poisoning by lamellarins: comparison with camptothecin and structure-activity relationships” (J Med Chem, 2005).

Legend:
CCRF-CEM [1] = assay: Inhibitory concentration against CEM cell growth after incubation in liquid medium for 72 h; type: functional, cell-based; conditions: Homo sapiens
CCRF-CEM [2] = assay: Ratio of IC50 against CPT-resistant cell line to that of CPT-sensitive cell line expressed as relative resistant index; type: functional, Homo sapiens
[3] = Inhibitory concentration against CEM/C2 cell growth after incubation in liquid medium for 72 h; type: functional, cell-based; conditions: Homo sapiens, CEM/C2, 72 h

| Compound | IC50 (CCRF-CEM [1]) [nM] | RRI (CCRF-CEM [2]) | IC50 [3] [µM] |
| --- | --- | --- | --- |
| COc1cc(-c2c3c4ccccc4oc(=O)c3n3ccc4cc(O)c(OC)cc4c23)ccc1O | 2230 | 5 | 11.1 |
| COc1cc(-c2c3c4cc(OC)c(O)cc4oc(=O)c3n3ccc4cc(O)c(OC)cc4c23)ccc1O [LAMELLARIN D] | 5 | 144 | 0.72 |
| COc1cc(-c2c3c4ccc(O)cc4oc(=O)c3n3ccc4cc(O)c(OC)cc4c23)ccc1O | 17 | 164 | 2.74 |
| COc1cc2c(cc1O)oc(=O)c1c2c(-c2ccc(OC)c(OC)c2)c2c3cc(OC)c(OC)cc3ccn21 | 3030 | 2 | 5.55 |
| CC(=O)Oc1ccc(-c2c3c4cc(OC(C)=O)c(OC(C)=O)cc4oc(=O)c3n3ccc4cc(OC(C)=O)c(OC(C)=O)cc4c23)cc1OC(C)=O | 1950 | 4 | 6.93 |
| COc1ccc2oc(=O)c3c(c(-c4ccc(O)c(OC)c4)c4c5cc(OC)c(O)cc5ccn43)c2c1 | 520 | 12 | 6.25 |
| CC[C@@]1(O)C(=O)OCc2c1cc1n(c2=O)Cc2cc3ccccc3nc2-1 [CAMPTOTHECIN] | 0.84 | 6400 | 5.38 |
| O=c1oc2ccccc2c2c(-c3ccc(O)c(O)c3)c3c4cc(O)c(O)cc4ccn3c12 | 430 | 2 | 0.95 |
| COc1ccc(-c2c3c4cc5c(cc4oc(=O)c3n3ccc4cc(OC)c(OC)cc4c23)OCO5)cc1OC | > 100000 |  | > 100 |
